Measured values from ChEMBL document CHEMBL4837256, “Discovery and Characterization of a Rapidly Fungicidal and Minimally Toxic Peptoid against Cryptococcus neoformans” (ACS Med Chem Lett, 2021).
≈ marks a conversion by molar mass, not a printed value. Calls of active or inactive are those of the source. No cut-off for these calls is given here. Where a SMILES comes first, the peptide text is derived from it. [ ]: non-standard residue; d: D form. N(tridecyl)Gly = CCCCCCCCCCCCCNCC(=O)O; Gly(N-2-aminoethyl) = NCCNCC(=O)O; Gly(N-cHex) = O=C(O)CNC1CCCCC1; Nlys = NCCCCNCC(=O)O; Sar = CNCC(=O)O

How the values were obtained:
Cryptococcus neoformans [1] = experiment: Antifungal activity against Cryptococcus neoformans H99S assessed as inhibition of fungal growth measured after 72 hrs by Plate reader assay; type: functional
[2] = Cytotoxicity against human HepG2 cells assessed as cell death measured after 72 hrs by MTT assay; type: cell-based; details: read-out: TD50
[3] = Selectivity ratio of TD50 for human HepG2 cells to MIC for Cryptococcus neoformans H99S; type: toxicity
Cryptococcus neoformans [4] = experiment: Antifungal activity against Cryptococcus neoformans assessed as assessed as half life for fungal killing; type: functional, organism-based
[5] = Protein binding in human serum at 100 ug/ml measured after 24 hrs by RP-HPLC method; type: ADME, cell-free; details: at 100 µg/mL
Pseudomonas aeruginosa = experiment: Antibacterial activity against Pseudomonas aeruginosa ATCC 25619 assessed as inhibition of bacterial growth measured after 24 hrs by Plate reader method; type: functional
Cryptococcus neoformans [6] = experiment: Indifferent antifungal activity against Cryptococcus neoformans H99S assessed as fractional inhibitory concentration index incubated for 72 hrs in presence of 0.25 to 16 ug/ml flucytosine by checkerboard microdilution assay; type: functional
Cryptococcus neoformans [7] = experiment: […] antifungal activity against Cryptococcus neoformans H99S assessed as fractional inhibitory concentration index incubated for 72 hrs in presence of 0.03 to 2 ug/ml Amphotericin B by checkerboard microdilution assay; type: functional
[8] = Selectivity ratio of MIC for Cryptococcus gattii R265 ATCC MYA-4093 to MIC for Cryptococcus neoformans H99S measured after 72 hrs by Plate reader assay; type: functional
Enterococcus faecalis = experiment: Antibacterial activity against Enterococcus faecalis ATCC 29212 assessed as inhibition of bacterial growth measured after 24 hrs by Plate reader method; type: functional
[9] = Selectivity ratio of TD50 for human HPL1A cells to MIC for Cryptococcus neoformans H99S; type: toxicity
[10] = tested on: Mycolicibacterium smegmatis; experiment: Antibacterial activity against Mycobacterium smegmatis assessed as inhibition of bacterial growth measured after 72 hrs by Plate reader method; type: functional
Enterococcus faecium = experiment: Antibacterial activity against Enterococcus faecium ATCC 6569 assessed as inhibition of bacterial growth measured after 24 hrs by Plate reader method; type: functional
Cryptococcus neoformans [11] = experiment: Antifungal activity against Cryptococcus neoformans H99S assessed as inhibition of fungal growth preincubated with human serum for 1 hr followed by incubation with fungus and measured after 72 hrs by Plate reader method; type: functional; details: time 73 hrs
[12] = Stability of compound assessed as trypsin-mediated compound degradation at 2 mg/ml measured after 24 hrs by RP-HPLC method; type: ADME; details: isolated protein
Klebsiella pneumoniae = experiment: Antibacterial activity against Klebsiella pneumoniae ATCC 13883 assessed as inhibition of bacterial growth measured after 24 hrs by Plate reader method; type: functional
Cryptococcus neoformans [13] = experiment: Indifferent antifungal activity against Cryptococcus neoformans H99S assessed as fractional inhibitory concentration index incubated for 72 hrs in presence of 0.5 to 32 ug/ml fluconazole by checkerboard microdilution assay; type: functional
[14] = Antifungal activity against Cryptococcus gattii R272 ATCC MYA-4094 assessed as inhibition of fungal growth measured after 72 hrs by Plate reader assay; type: functional, Cryptococcus gattii VGI
[15] = Cytotoxicity against human HaCaT cells assessed as cell death measured after 72 hrs by MTT assay; type: cell-based; details: read-out: TD50
[16] = Antifungal activity against Cryptococcus gattii R265 ATCC MYA-4093 assessed as inhibition of fungal growth measured after 72 hrs by Plate reader assay; type: functional, Cryptococcus gattii VGI
Cryptococcus neoformans [17] = experiment: Antifungal activity against Cryptococcus neoformans H99S assessed as half life for fungal killing at 12.5 ug/ml by Plate reader assay; type: functional, organism-based; details: dose 12.5 µg/ml
Staphylococcus aureus = experiment: Antibacterial activity against Staphylococcus aureus ATCC 29213 assessed as inhibition of bacterial growth measured after 24 hrs by Plate reader method; type: functional
Cryptococcus neoformans [18] = experiment: Antifungal activity against Cryptococcus neoformans H99S assessed as dead cells at 12.5 ug/ml measured after 30 mins by time-to-kill assay; type: functional; details: dose 12.5 µg/ml, 0.5 h
Cryptococcus neoformans [19] = experiment: Antifungal activity against Cryptococcus neoformans H99S assessed as elimination of viable cells at 12.5 ug/ml measured after 1 hr by Plate reader assay; type: functional; details: dose 12.5 µg/ml
[20] = Selectivity ratio of TD50 for mouse 3T3 cells to MIC for Cryptococcus neoformans H99S; type: toxicity
[21] = Cytotoxicity against mouse 3T3 cells assessed as cell death measured after 72 hrs by MTT assay; type: cell-based; details: read-out: TD50
[22] = Selectivity ratio of HC10 for human RBC to MIC for Cryptococcus neoformans H99S; type: toxicity; details: red blood cells (RBC)
Candida albicans [23] = experiment: Antifungal activity against Candida albicans ATCC10231 assessed as inhibition of fungal growth measured after 24 hrs by Plate reader assay; type: functional
Lipid bilayer = experiment: Induction of membrane disruption in calcein loaded PC:PE:PS:Ergosterol (4:2:1:0.1) liposomes mimicking Cryptococcus neoformans H99S membrane assessed as increase in fluorescence intensity measured after 1 hr by liposome assay
[24] = Selectivity ratio of TD50 for human HaCaT cells to MIC for Cryptococcus neoformans H99S; type: toxicity
Candida albicans [25] = experiment: Antifungal activity against Candida albicans ATCC10231 assessed as inhibition of biofilm formation measured after 24 hrs by fluorescence based plate reader assay; type: functional
Escherichia coli = experiment: Antibacterial activity against Escherichia coli ATCC 25922 assessed as inhibition of bacterial growth measured after 24 hrs by Plate reader method; type: functional
[26] = Cytotoxicity against human HPL1A cells assessed as cell death measured after 72 hrs by MTT assay; type: cell-based; details: read-out: TD50
[27] = Selectivity ratio of MIC for Cryptococcus gattii R272 ATCC MYA-4094 to MIC for Cryptococcus neoformans H99S measured after 72 hrs by Plate reader assay; type: functional
Erythrocyte = experiment: Hemolytic activity in human RBC measured after 1 hr by microplate reader method; type: ADME, cell-based
Cryptococcus neoformans [28] = experiment: Fungicidal activity against Cryptococcus neoformans H99S assessed as fungal killing at 12.5 ug/ml measured after drug wash-out; type: functional, organism-based; details: dose 12.5 µg/ml
Acinetobacter baumannii = experiment: Antibacterial activity against Acinetobacter baumannii ATCC 19606 assessed as inhibition of bacterial growth measured after 24 hrs by Plate reader method; type: functional; details: ATCC 19606 = CIP 70.34 = JCM 6841

SMILES: CCCCCCCCCCCCCNCC(=O)N(CC(=O)N(C)CC(=O)N(CCN)CC(=O)N(CC(N)=O)C1CCCCC1)C1CCCCC1
- MIC (Cryptococcus neoformans [1]): 3.13 µg/mL (≈ 4.43 µM)
- CC50 at 72 h [2]: 83 µg/mL (≈ 118 µM)
- selectivity ratio [3]: 27

SMILES: CCCCCCCCCCCCCNCC(=O)N(CCCCN)CC(=O)N(CC(N)=O)Cc1ccco1
- T1/2 (Cryptococcus neoformans [4]): 30 min

SMILES: CCCCCCCCCCCCCNCC(=O)N(CC(=O)N(CCCCN)CC(=O)N(CCN)CC(=O)N(CC(N)=O)C1CCCCC1)C1CCCCC1 (H-[N(tridecyl)Gly][Gly(N-cHex)][Nlys][Gly(N-2-aminoethyl)][Gly(N-cHex)]-NH2)
- MIC (Cryptococcus neoformans [1]): 1.56 µg/mL (≈ 2.04 µM)
- PB [5]: Not Active
- MIC (Pseudomonas aeruginosa): 100 µg/mL (≈ 131 µM)
- fractional inhibitory concentration index (FICI) (Cryptococcus neoformans [6]): 2
- fractional inhibitory concentration index (FICI) (Cryptococcus neoformans [7]): 0.75
- Selectivity ratio [8]: 2
- MIC (Enterococcus faecalis): 6.25 µg/mL (≈ 8.19 µM)
- selectivity ratio [9]: 47
- MIC [10]: 3.13 µg/mL (≈ 4.1 µM)
- MIC (Enterococcus faecium): 6.25 µg/mL (≈ 8.19 µM)
- MIC (Cryptococcus neoformans [11]): 3.13 µg/mL (≈ 4.1 µM)
- Stabilty [12]: Stable
- MIC (Klebsiella pneumoniae): 100 µg/mL (≈ 131 µM)
- fractional inhibitory concentration index (FICI) (Cryptococcus neoformans [13]): 2
- MIC [14]: 3.13 µg/mL (≈ 4.1 µM)
- CC50 at 72 h [15]: 54 µg/mL (≈ 70.8 µM)
- MIC [16]: 3.13 µg/mL (≈ 4.1 µM)
- CC50 at 72 h [2]: 189 µg/mL (≈ 248 µM)
- T1/2 (Cryptococcus neoformans [17]): 6.5 min
- MIC (Staphylococcus aureus): 6.25 µg/mL (≈ 8.19 µM)
- Activity (Cryptococcus neoformans [18]): >50%
- Activity (Cryptococcus neoformans [19]): 100%
- selectivity ratio [20]: 38
- CC50 at 72 h [21]: 59 µg/mL (≈ 77.3 µM)
- selectivity ratio [22]: 49
- MIC (Candida albicans [23]): 25 µg/mL (≈ 32.8 µM)
- Activity (Lipid bilayer): Active
- selectivity ratio [24]: 35
- MIC (Candida albicans [25]): 100 µg/mL (≈ 131 µM)
- MIC (Escherichia coli): 12.5 µg/mL (≈ 16.4 µM)
- selectivity ratio [3]: 120
- CC50 at 72 h [26]: 74 µg/mL (≈ 97 µM)
- Selectivity ratio [27]: 2
- HC10 (Erythrocyte): 77 µg/mL
- Activity (Cryptococcus neoformans [28]): Active
- MIC (Acinetobacter baumannii): 25 µg/mL (≈ 32.8 µM)

SMILES: CCCCCCCCCCCCCNCC(=O)N(CC(=O)N(CCCCN)CC(=O)N(CCN)CC(=O)N(C)CC(N)=O)C1CCCCC1 (H-[N(tridecyl)Gly][Gly(N-cHex)][Nlys][Gly(N-2-aminoethyl)][Sar]-NH2)
- MIC (Cryptococcus neoformans [1]): 6.25 µg/mL (≈ 8.99 µM)
- CC50 at 72 h [2]: > 200 µg/mL

SMILES: CCCCCCCCCCCCCNCC(=O)N(CC(=O)N(CCCCN)CC(=O)N(C)CC(=O)N(CC(N)=O)C1CCCCC1)C1CCCCC1 (H-[N(tridecyl)Gly][Gly(N-cHex)][Nlys][Sar][Gly(N-cHex)]-NH2)
- MIC (Cryptococcus neoformans [1]): 3.13 µg/mL (≈ 4.26 µM)
- CC50 at 72 h [2]: 84 µg/mL (≈ 114 µM)
- selectivity ratio [3]: 27

SMILES: CCCCCCCCCCCCCNCC(=O)N(C)CC(=O)N(CCCCN)CC(=O)N(CCN)CC(=O)N(CC(N)=O)C1CCCCC1 (H-[N(tridecyl)Gly][Sar][Nlys][Gly(N-2-aminoethyl)][Gly(N-cHex)]-NH2)
- MIC (Cryptococcus neoformans [1]): 6.25 µg/mL (≈ 8.99 µM)
- CC50 at 72 h [2]: > 200 µg/mL

SMILES: CNCC(=O)N(CC(=O)N(CCCCN)CC(=O)N(CCN)CC(=O)N(CC(N)=O)C1CCCCC1)C1CCCCC1 (H-[Sar][Gly(N-cHex)][Nlys][Gly(N-2-aminoethyl)][Gly(N-cHex)]-NH2)
- MIC (Cryptococcus neoformans [1]): > 50 µg/mL
- CC50 at 72 h [2]: > 200 µg/mL

SMILES: C[C@@H]1[C@H](O)[C@@H](C)/C=C/C=C/C=C/C=C/C=C/C=C/C=C/[C@H](O[C@@H]2O[C@H](C)[C@@H](O)[C@H](N)[C@@H]2O)C[C@@H]2O[C@](O)(C[C@@H](O)C[C@@H](O)[C@H](O)CC[C@@H](O)C[C@@H](O)CC(=O)O[C@H]1C)C[C@H](O)[C@H]2C(=O)O [AMPHOTERICIN B]
- MIC (Cryptococcus neoformans [1]): 0.25 µg/mL (≈ 0.271 µM)
- T1/2 (Cryptococcus neoformans [4]): 240 min

SMILES: OC(Cn1cncn1)(Cn1cncn1)c1ccc(F)cc1F [FLUCONAZOLE]
- MIC (Cryptococcus neoformans [1]): 2 µg/mL (≈ 6.53 µM)

SMILES: Nc1nc(=O)[nH]cc1F [FLUCYTOSINE]
- MIC (Cryptococcus neoformans [1]): 2 µg/mL (≈ 15.5 µM)
